Experimental data published in article PMC6150735, “Molecular Docking-Based Design and Development of a Highly Selective Probe Substrate for UDP-glucuronosyltransferase 1A10” (Molecular Pharmaceutics, 2018).
“Also recorded” adds a separate entry of the source.

Key:
[1] = Excitation and emission fluorescence spectra of coumarin derivatives; type: physicochemical; parameters: dose or concentration left out as unconfirmed
Experimental: The absorbance spectra of 10 μM coumarin derivatives at 100 mM Tris–HCl pH 7.4 containing 10% dimethyl sulfoxide were measured using a Hitachi U-2000 Spectrophotometer (Tokyo, Japan). […] The excitation spectra was from 200 to 420 at 460 nm emission and the emission spectra was from 400 to 600 at 390 nm excitation (data in Supplementary Table S1 and Figures S1 and S2). The effect of pH on fluorescence intensity was determined at 405 nm excitation and 460 nm emission, in the presence of 1.5% trichloroacetic acid, 100 mM phosphate buffers at pH 5, 6, 7, 8, and 9, or 1.6 M glycine–NaOH pH 10.4.

human UGTs = assay: Recombinant human UGT screen: glucuronidation rates across human UGTs; type: biochemical; conditions: 10 μM aglycone; other UGTs at very low rates
Experimental: Recombinant human UGTs 1A1, 1A3, 1A6, 1A7, 1A8, 1A9, 1A10, 2A1, 2A2, 2A3, 2B4, 2B10, 2B7, and 2B17 were produced, as His-tagged proteins, in baculovirus-infected insect cells as previously described.[37]−[39] The relative expression level of each of these recombinant UGTs was evaluated by immunodetection, using monoclonal antibody against the His-tag, as described elsewhere.[40] A numeric value of 1.0 was given to the expression level of UGT1A8 and the relative expression level of each of the other UGTs was related to this value. Normalized activities were obtained by dividing the glucuronidation rate values by the relative expression level of the tested UGT. In addition, UGTs 1A4, 2B10, and 2B15 were purchased from Corning Life Sciences (New York) and are marked, in Figure 5, with a “C” to indicate that they are commercial enzymes. The expression levels of the UGTs in the commercial samples could not be determined, so their protein concentration was used to calculate the reaction rate.
(§1) The incubation mixtures for glucuronidation assays contained 100 mM Tris-HCl buffer pH 7.4, 2.5 mM MgCl2, 0.5 mM UDPGA, recombinant UGT, or microsomes as the enzyme source and 0–15 μM of the test aglycone substrate. When the incubation mixtures contained microsomes, alamethicin was used at a final concentration of 12.5 μg/mL, but it was not included in the recombinant enzyme assays.[43] In the first experiments three negative control samples were tested, namely (i) without the substrate 7-hydroxycoumarin derivative, (ii) without the cofactor UDPGA, or (iii) without the enzyme source. In subsequent experiments, the control samples lacked the enzyme source since it gave the highest fluorescence background. Preliminary experiments were done under different conditions than most of the later assays, namely in 2.5 mL of 100 mM phosphate buffer pH 7.4, containing 500 μg pig liver microsomes, 1.0 μM compound 6 and 0.5 mM UDPGA, at room temperature. Fluorescence spectra (excitation 200–420 nm; emission 400–600 nm) or fluorescence decrease at 390 nm excitation and 460 nm emission, were measured in these preliminary experiments, using a Shimadzu RF-5000 spectrophotofluorometer.
(§2) Most of the glucuronidation assays were carried out in 96 multiwell plate format, and incubations were carried out in 100 μL and at 37 °C, in the presence of Tris–HCl buffer pH 7.4, UDPGA, and the tested 7-hydroxycoumarin derivative, at the indicated concentrations. Fluorescence decline in the multiwell plate experiments was monitored every other minute, for 40 min, using an excitation filter at 405 nm and detection at 460 nm, in a Victor2 1420 Multilabel counter (PerkinElmer, Life Sciences, Turku, Finland). The fluorescence values were transformed into molarity using the aglycone substrates for making the respective standard curves. Slopes of the substrate concentration decrease per minute were calculated using linear regression analysis, in which the linear part of the kinetic assay indicated the glucuronidation rate. Enzyme catalyzed glucuronidation rate was calculated by subtracting the blank value from the full reaction value. The intra-assay variability of the kinetic assays was 6% when compound 6 was used as the aglycone substrate. Kinetic analyses were also performed in the same 96 multiwell plates format, with excitation filter at 405 nm and detection at 460 nm, using 6–8 different substrate concentrations per substrate and two different protein concentrations for both the wild-type and mutant UGT1A10. The higher concentrations, 13.5 mg/L for UGT1A10 and 12.0 mg/L for the UGT1A10 mutant, were used when the substrates were HFC, compounds 4 and 6, whereas the lower protein concentrations, 6.75 and 6.0 mg/L for UGT1A10 and the mutant, respectively, were used when the substrates were compounds 1, 2, 3, and 5.

[2] = Absorbance spectra of coumarin derivatives; type: physicochemical; conditions: 10 μM, 100 mM Tris–HCl pH 7.4, 10% dimethyl sulfoxide
Experimental: The absorbance spectra of 10 μM coumarin derivatives at 100 mM Tris–HCl pH 7.4 containing 10% dimethyl sulfoxide were measured using a Hitachi U-2000 Spectrophotometer (Tokyo, Japan). Excitation and emission fluorescence spectra of 0.1 μM coumarin derivatives in 100 mM Tris-HCl pH 7.4 were measured using a Shimadzu RF-5000 spectrophotofluorometer (Tokyo, Japan). The excitation spectra was from 200 to 420 at 460 nm emission and the emission spectra was from 400 to 600 at 390 nm excitation (data in Supplementary Table S1 and Figures S1 and S2). The effect of pH on fluorescence intensity was determined at 405 nm excitation and 460 nm emission, in the presence of 1.5% trichloroacetic acid, 100 mM phosphate buffers at pH 5, 6, 7, 8, and 9, or 1.6 M glycine–NaOH pH 10.4.

[3] = system: human liver microsomes (HLM); assay: Glucuronidation by human liver microsomes (HLM); type: in vitro ADME; conditions: 10 μM aglycone
Experimental: A commercial HLM pool (cat no:452210, BD Gentest, Bedford, MA) and human intestine microsomes (HIM) pool (lot. no 1110189, XenoTech, Kansas City, KS) were purchased. Pig liver samples were prepared from untreated female pigs that were used for practicing surgical procedures at the University of Kuopio (currently: University of Eastern Finland, Kuopio campus). Other animal liver microsomes were prepared as described previously.[41] The Ethics Committee for Animal Experiments, University of Kuopio, approved these experiments.
as §1, §2

Row | Structure (SMILES) | Fluorescence EMmax [1] [nm] | Fluorescence EXmax [1] [nm] | Selectivity among human UGTs (human UGTs) | Amax [2] [nm] | ε abs [2] [M⁻¹ cm⁻¹] | Glucuronidation by HLM (in words) [3]
1 | Cc1ccc(-c2cc3ccc(O)cc3oc2=O)cc1 [Compound 5, 7-Hydroxy-3-(p-tolyl)-2H-chromen-2-one] | 462 | 358 | selective for UGT1A10 | 347 | 19500 | 
2 | CN(C)c1ccc(-c2cc3ccc(O)cc3oc2=O)cc1 [Compound 4, 7-Hydroxy-3-(4-(dimethylamino)phenyl)-2H-chromen-2-one] | 457 |  | selective for UGT1A10 | 370 | 22900 | not glucuronidated by HLM at all, or only at very low rates; also recorded: very low or below the detection limit
